Several values for one entry are separate records, joined by “and”; a condition that tells them apart may be missing. Identical values can stand only once.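 48-hour exposure; five concentrations; linearly interpolated endpoints. GI50: concentration for 50% inhibition of growth. Definition used: TGI = concentration required for complete inhibition of growth.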
How the values were obtained:
Assay in all cases: growth of human tumour cells (NCI), 48 h
[1] = system: UO-31 renal
[2] = system: A498 renal
[3] = system: HCC-2998 colon
[4] = system: HCT-116 colon
[5] = system: SK-MEL-2 melanoma
[6] = system: UACC-62 melanoma
[7] = system: MCF7 breast
[8] = system: KM20L2 colon
[9] = system: HOP-62 NSCLC
[10] = system: RXF 393 renal

SMILES	TGI [1]	TGI [2]	TGI [3]	TGI [4]	TGI [5]	TGI [6]	TGI [7]	TGI [8]	GI50 [1]	TGI [9]	GI50 [2]	GI50 [3]	GI50 [10]	TGI [10]	GI50 [4]	GI50 [5]	GI50 [6]	GI50 [9]	GI50 [7]
Cc1sc(Cc2ccccc2)nc1-c1ccc(N)cc1	> 100 µM	> 100 µM	35.5 µM	40.7 µM	37.7 µM	37.8 µM	44.1 µM												
Cc1c2cc[n+](CCN3CCCCC3)cc2c(C)c2c1[nH]c1ccc(O)cc12	69.9 µM and 61.2 µM	48 µM and 30.5 µM	53 µM and 37.4 µM	24.1 µM and 26.1 µM	35.5 µM and 36.3 µM	36.7 µM and 31.2 µM	39.7 µM and 11.5 µM	34.5 µM	9.25 µM	13 µM and 18.3 µM	3.48 µM	14.3 µM	3.09 µM	23.6 µM and 16 µM	4.75 µM	13.5 µM	11.4 µM		
CN(C)c1ccc(/C=N\NC(=O)CSCC(=O)N/N=C/c2ccc(N(C)C)cc2)cc1	> 100 µM			> 100 µM	> 100 µM	> 100 µM	> 100 µM			> 100 µM				81.5 µM					
O=c1ccc2cc(O)c(O)cc2o1	> 100 µM	> 100 µM	> 100 µM	> 100 µM	> 100 µM	> 100 µM	> 100 µM			> 100 µM				> 100 µM					
CN(C)CCNc1nc(-c2ccc3ccccc3c2)nc2nc[nH]c12	12.9 µM		10.6 µM	24.6 µM	28.1 µM	22.9 µM	20.6 µM			23.1 µM				24.2 µM					
C[C@@H]1CC[C@H]2C(COCCOCC3=C(C(F)(F)F)O[C@@H]4O[C@@]5(C)CC[C@H]6[C@H](C)CC[C@@H]3[C@@]46OO5)=C(C(F)(F)F)O[C@@H]3O[C@@]4(C)CC[C@@H]1[C@]32OO4	> 100 µM	> 96.9 µM	> 100 µM	> 100 µM	> 100 µM	> 100 µM	> 100 µM		0.186 µM	> 100 µM	> 20.2 µM	> 11.9 µM	> 100 µM	> 100 µM	0.0243 µM	> 100 µM	0.141 µM	> 24 µM	0.0322 µM
NC(N)=N/N=C/c1c(-c2ccccc2)nc2n1ccc1nc(-c3ccccc3)c(/C=N/N=C(N)N)n12	> 100 µM	> 100 µM		> 100 µM	> 100 µM	> 100 µM	> 100 µM			> 100 µM				> 100 µM					
CC1=NN(c2ccccc2)C(=O)/C1=C/c1ccc(O)cc1		> 100 µM	> 100 µM	> 100 µM	> 100 µM	> 100 µM	> 100 µM							> 100 µM					
CC1=C2C(=O)c3ccccc3C(=O)[C@H]2[C@H]2CCO[C@H]2O1	35.7 µM	> 100 µM	48.1 µM	79 µM	36.6 µM	39.7 µM	23.6 µM			40 µM				31.3 µM					
C/C=C/[P+](c1ccccc1)(c1ccccc1)c1ccccc1	88.6 µM	41.3 µM	3.82 µM	20.6 µM	29.1 µM	19.2 µM	> 45.5 µM			27.4 µM				41.6 µM					
Cc1ccc(Oc2ccc(C)cc2[N+](=O)[O-])cc1	> 100 µM	> 100 µM	> 100 µM	> 100 µM	> 100 µM	> 100 µM		> 100 µM		> 100 µM				92.7 µM					

— PubChem BioAssay (NCI)
